Data: a compilation of properties of binary mixtures (doi:10.1016/j.jct.2022.106970)

Experiment: xn = mol fraction of the nth substance listed
Settings: 92.3 kPa

CCO + CCCC[NH3+].O=C[O-]
x2 = 0
Settings | speed of sound [m/s] | viscosity [mPa·s]
293.15 K | 1160.1 | 1.238
298.15 K | 1142.9 | 1.092
308.15 K | 1109 | 0.912
313.15 K | 1092.3 | 0.836

CCCC[NH3+].O=C[O-] + CCO
Settings | speed of sound, 293.15 K [m/s] | speed of sound, 298.15 K [m/s] | speed of sound, 303.15 K [m/s] | speed of sound, 308.15 K [m/s] | speed of sound, 313.15 K [m/s] | viscosity, 293.15 K [mPa·s] | viscosity, 298.15 K [mPa·s] | viscosity, 303.15 K [mPa·s] | viscosity, 308.15 K [mPa·s] | viscosity, 313.15 K [mPa·s]
x1 = 0.0484 | 1197.4 | 1180.8 | 1164.2 | 1147.9 | 1131.6 | 1.91 | 1.672 | 1.512 | 1.37 | 1.247
x1 = 0.1038 | 1232 | 1215.9 | 1199.9 | 1184 | 1168.2 | 2.85 | 2.5 | 2.26 | 2.04 | 1.845
x1 = 0.1507 | – | 1242.7 | 1227 | 1211.4 | 1196 | – | 3.44 | 3.07 | 2.76 | 2.49
x1 = 0.2004 | 1283.9 | – | 1253.1 | – | 1222.7 | 5.28 | – | 4.15 | – | 3.33
x1 = 0.2564 | 1310.4 | 1295.2 | – | – | 1250.5 | 7.29 | 6.4 | – | – | 4.54
x1 = 0.2938 | 1326.3 | 1311.4 | 1296.6 | 1281.9 | 1267.4 | 9 | 7.92 | 6.99 | 6.2 | 5.53
x1 = 0.355 | 1350.5 | 1336 | – | – | 1292.9 | 12.31 | 10.71 | – | – | 7.3
x1 = 0.3886 | – | 1348.5 | 1334.2 | 1320 | – | – | 12.67 | 11.04 | 9.68 | –
x1 = 0.4521 | 1384.5 | 1370.5 | – | – | 1328.9 | 19.7 | 16.96 | – | – | 11.16
x1 = 0.5005 | 1399.2 | 1385.4 | – | 1358.1 | 1344.6 | 24.9 | 21.3 | – | 15.84 | 13.79
x1 = 0.5487 | 1413.1 | 1399.5 | 1386 | 1372.7 | 1359.4 | 30.5 | 25.8 | 22 | 18.89 | 16.39
x1 = 0.5982 | 1426.3 | 1412.9 | – | 1386.5 | 1373.5 | 37.6 | 31.7 | – | 23.1 | 19.7
x1 = 0.6393 | 1436.7 | 1423.5 | 1410.4 | – | 1384.7 | 44.9 | 37.5 | 31.5 | – | 23
x1 = 0.6993 | 1450.9 | 1437.9 | 1425.1 | – | 1399.8 | 57.4 | 47.4 | 39.5 | – | 28.3
x1 = 0.749 | 1462.1 | 1449.3 | 1436.6 | 1424.1 | 1411.7 | 70.3 | 57.5 | 47.7 | 39.9 | 33.8
x1 = 0.7972 | – | 1459.5 | 1447 | 1434.7 | 1422.5 | – | 69.5 | 57.1 | 47.4 | 39.8
x1 = 0.8487 | 1482 | – | 1457.2 | 1445.1 | 1433.2 | 103.8 | – | 68.4 | 56.6 | 47.2
x1 = 0.8993 | 1491.4 | 1479.1 | 1467 | 1455 | 1443.2 | 126.4 | 101.1 | 81.9 | 67.2 | 55.7
x1 = 0.9444 | – | – | 1475.2 | 1463.4 | 1451.8 | – | – | 95.8 | 78.1 | 64.4
x1 = 1 | 1508.6 | 1496.5 | 1484.7 | 1473.1 | 1461.7 | 182.3 | 143.6 | 114.7 | 92.7 | 76.1
